Active and inactive are the calls of the source. The calls are words filed in the database; no cut-off is given here.
Legend:
[1] = tested on: RAW264.7; test: Cytotoxicity against mouse RAW264.7 cells assessed as decrease in cell viability at 20 uM; format: cell-based; conditions: raw264.7, 20 µM
[2] = Reduction of SNP-induced nitrite accumulation at 1 to 10 uM after 180 mins by Griess assay
[3] = biological target: T1, Nitric oxide synthase, inducible (Mus musculus) (UniProt P29477); test: Inhibition of iNOS in LPS-treated mouse BV2 cells assessed as decrease in nitrite level at 1 to 5 uM after 12 hrs by Griess assay; format: cell-based; conditions: BV-2
T1 sequence (whole entry): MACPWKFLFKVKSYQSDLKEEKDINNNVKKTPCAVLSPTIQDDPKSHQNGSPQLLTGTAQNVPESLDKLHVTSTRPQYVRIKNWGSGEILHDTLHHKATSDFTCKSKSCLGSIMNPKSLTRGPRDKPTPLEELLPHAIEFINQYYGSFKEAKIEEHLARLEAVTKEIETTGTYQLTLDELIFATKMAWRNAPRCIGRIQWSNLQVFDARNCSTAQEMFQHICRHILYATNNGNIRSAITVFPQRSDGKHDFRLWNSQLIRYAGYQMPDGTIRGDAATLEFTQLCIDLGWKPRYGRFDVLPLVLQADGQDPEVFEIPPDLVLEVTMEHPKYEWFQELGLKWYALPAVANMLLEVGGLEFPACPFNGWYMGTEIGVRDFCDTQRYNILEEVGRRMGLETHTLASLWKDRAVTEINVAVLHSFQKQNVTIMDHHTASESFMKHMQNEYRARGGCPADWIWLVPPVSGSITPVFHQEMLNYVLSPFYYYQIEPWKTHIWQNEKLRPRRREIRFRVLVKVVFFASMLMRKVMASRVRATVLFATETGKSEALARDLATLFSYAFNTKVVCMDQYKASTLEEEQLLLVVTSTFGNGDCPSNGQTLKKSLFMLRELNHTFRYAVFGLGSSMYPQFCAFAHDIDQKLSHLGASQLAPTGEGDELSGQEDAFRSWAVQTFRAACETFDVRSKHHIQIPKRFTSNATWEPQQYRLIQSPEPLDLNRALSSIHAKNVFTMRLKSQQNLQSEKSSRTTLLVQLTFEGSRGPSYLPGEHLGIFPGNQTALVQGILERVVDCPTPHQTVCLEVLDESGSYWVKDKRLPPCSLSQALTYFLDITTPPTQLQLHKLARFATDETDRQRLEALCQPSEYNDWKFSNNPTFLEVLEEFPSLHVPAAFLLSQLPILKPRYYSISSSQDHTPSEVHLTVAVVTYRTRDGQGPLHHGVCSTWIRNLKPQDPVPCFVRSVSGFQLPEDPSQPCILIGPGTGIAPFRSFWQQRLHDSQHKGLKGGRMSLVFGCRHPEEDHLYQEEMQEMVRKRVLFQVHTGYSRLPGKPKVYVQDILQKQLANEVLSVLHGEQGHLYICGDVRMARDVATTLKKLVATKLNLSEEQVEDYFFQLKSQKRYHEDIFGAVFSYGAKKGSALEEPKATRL

[4] = Cytotoxicity against mouse BV2 cells assessed as cell viability at 20 uM by MTT assay; format: cell-based, BV-2; conditions: read-out: Activity
[5] = tested on: BV-2; test: Downregulation of iNOS expression in LPS-treated mouse BV2 cells at 1 to 10 uM incubated for 30 mins prior to LPS challenge measured after 6 hrs by Western blot analysis; format: functional, cell-based
[6] = tested on: BV-2; test: Anti-neuroinflammatory activity in mouse BV2 cells assessed as inhibition of LPS-induced nitric oxide production […] by Griess assay relative to control; format: functional, cell-based
[7] = tested on: RAW264.7; test: Anti-neuroinflammatory activity in mouse RAW264.7 cells assessed as inhibition of LPS-induced nitric oxide production; format: functional, cell-based
[8] = Reduction of SNP-induced nitrite accumulation at 5 to 10 uM after 180 mins by Griess assay
[9] = tested on: BV-2; test: Downregulation of iNOS expression in LPS-treated mouse BV2 cells at 10 uM incubated for 30 mins prior to LPS challenge measured after 6 hrs by Western blot analysis; format: functional, cell-based
[10] = biological target: T1, Nitric oxide synthase, inducible (Mus musculus); test: Inhibition of iNOS in LPS-treated mouse BV2 cells assessed as decrease in nitrite level at 1 to 10 uM after 12 hrs by Griess assay; format: cell-based; conditions: BV-2

| Compound | viability at 20 µM [4] [%] | IC50 [6] [µM] | other results |
| --- | --- | --- | --- |
| COC(=O)[C@]1(O)C[C@@H](OC(=O)/C=C/c2ccc(O)c(O)c2)[C@@H](O)[C@H](OC(=O)/C=C/c2ccc(O)c(O)c2)C1 | 91.1 | 9.04 | Activity [1]: Non-toxic; Activity [2]: Active; inhibition [3]: Active; Activity [5]: inactive; IC50 [7]: 42.9 µM |
| COC(=O)[C@@]1(O)C[C@@H](O)[C@H](OC(=O)/C=C/c2ccc(O)c(O)c2)[C@H](OC(=O)/C=C/c2ccc(O)c(O)c2)C1 [3,4-O-TRANS-CAFFEOYLQUINIC ACID METHYL ESTER] | 96.8 | 20.2 | – |
| CO[C@@H](CC(=O)O[C@@H]1C[C@](OC(=O)/C=C/c2ccc(O)c(O)c2)(C(=O)O)C[C@@H](O)[C@H]1O)c1ccc(O)c(O)c1 | 93.2 | 4.66 | Activity [1]: Non-toxic; Activity [8]: Active; Activity [9]: Active; inhibition [10]: Active; IC50 [7]: 175 µM |
| O=C(/C=C/c1ccc(O)c(O)c1)O[C@@H]1C[C@](OC(=O)/C=C/c2ccc(O)c(O)c2)(C(=O)O)C[C@@H](O)[C@H]1O [1,5-O-TRANS-DICAFFEOYLQUINIC ACID] | 93.7 | 22.6 | – |
| O=C(/C=C/c1ccc(O)cc1)O[C@@H]1C[C@](OC(=O)/C=C/c2ccc(O)c(O)c2)(C(=O)O)C[C@@H](O)[C@H]1O | 94.3 | 23.5 | – |
| COC(=O)[C@]1(O)C[C@@H](O)[C@@H](O)[C@H](OC(=O)/C=C\c2ccc(O)cc2)C1 | 109 | 86.4 | – |
| COC(=O)[C@]1(O)C[C@@H](O)[C@@H](OC(=O)/C=C/c2ccc(O)cc2)[C@H](O)C1 | 108 | 45 | – |
| COC(=O)[C@]1(O)C[C@@H](O)[C@@H](O)[C@H](OC(=O)/C=C/c2ccc(O)c(O)c2)C1 [CHLOROGENIC ACID METHYL ESTER] | 95.3 | 12.1 | – |
| CO[C@@H](CC(=O)O[C@@]1(C(=O)O)C[C@@H](O)[C@@H](O)[C@H](OC(=O)/C=C/c2ccc(O)c(O)c2)C1)c1ccc(O)c(O)c1 | 90.9 | 12.5 | – |
| COC(=O)[C@]1(O)C[C@@H](O)[C@@H](O)[C@H](OC(=O)/C=C\c2ccc(O)c(O)c2)C1 | 90.6 | 17 | – |
| O=C(/C=C\c1ccc(O)cc1)O[C@@H]1C[C@](OC(=O)/C=C\c2ccc(O)cc2)(C(=O)O)C[C@@H](O)[C@H]1O | 96 | 52.8 | – |
| O=C(/C=C\c1ccc(O)cc1)O[C@@H]1C[C@](OC(=O)/C=C/c2ccc(O)cc2)(C(=O)O)C[C@@H](O)[C@H]1O | 98.1 | 59.8 | – |
| COC(=O)[C@]1(O)C[C@@H](O)[C@@H](OC(=O)/C=C/c2ccc(O)c(O)c2)[C@H](OC(=O)/C=C/c2ccc(O)c(O)c2)C1 | 92.2 | 24.6 | – |
| CNC(=N)NCCC[C@H](N)C(=O)O [TILARGININE] | 103 | – | – |
| COC(=O)[C@]1(O)C[C@@H](O)[C@@H](O)[C@H](OC(=O)/C=C/c2ccc(O)cc2)C1 | 109 | 82 | – |
| COC(=O)[C@]1(O)C[C@@H](O)[C@@H](OC(=O)/C=C/c2ccc(O)c(O)c2)[C@H](O)C1 | 92.6 | 16.6 | – |

— ChEMBL document CHEMBL2346545, “Quinic acid derivatives from Pimpinella brachycarpa exert anti-neuroinflammatory activity in lipopolysaccharide-induced microglia” (Bioorg Med Chem Lett, 2013)
